The structures appear in SMILES notation.

In the case of `CC1(N2C(=O)c3cccc(N)c3C2=O)CCC(=O)NC1=O` (stereo not shown) [Example 7, 3-(3-Aminophthalimido)-3-methyl-piperidine-2,6-dione], the melting point (in general, the temperature, or range, at which the solid turns liquid) was 268 to 269 °C.

The record behind these values is US7459466B2, “Substituted 2-(2,6-dioxopiperidin-3-yl)-phthalimides and -1-oxoisoindolines and method of reducing TNFα levels” (Celgene Corporation, priority 1997, dated 2008).
